In patent US20210008095A1, “METHODS FOR TREATING MUSCULAR DYSTROPHY” (Sarepta Therapeutics, Inc., priority 2015, published 2021):

Columns and labels:
[1] = tested on: dystrophin; test: Dystrophin protein expression by western blot analysis in muscle biopsy; type: in vivo, human; settings: 180 weeks
Procedure: In some embodiments, the percent dystrophin-positive fibers are calculated by dividing the number of positive fibers by the total fibers counted. Normal muscle samples have 100% dystrophin-positive fibers. Therefore, the percent dystrophin-positive fibers can be expressed as a percentage of normal. To control for the presence of trace levels of dystrophin in the pretreatment muscle as well as revertant fibers a baseline can be set using sections of pre-treatment muscles from each patient when counting dystrophin-positive fibers in post-treatment muscles. This may be used as a threshold for counting dystrophin-positive fibers in sections of post-treatment muscle in that patient. In other embodiments, antibody-stained tissue sections can also be used for dystrophin quantification using Bioquant image analysis software (Bioquant Image Analysis Corporation, Nashville, Tenn.). The total dystrophin fluorescence signal intensity can be reported as a percentage of normal. […] Dystrophin production can also be measured by reverse-transcription polymerase chain reaction (RT-PCR). […] The percentage of dystrophin-positive fibers can also be analyzed by determining the expression of the components of the sarcoglycan complex (β,γ) and/or neuronal NOS. […]

[2] = tested on: dystrophin; test: Dystrophin positive fibers by immunohistochemistry (MANDYS106) in muscle biopsy; type: in vivo, human
Procedure: Patients continued weekly dosing with 30 or 50 mg/kg eteplirsen under Study 202 (Study no. 4658-us-202; ClinicalTrials.gov Identifier: NCT01540409) a long-term, open-label extension study. All efficacy assessments continued to be performed during Study 202, including a third biopsy (in the left deltoid muscle) in all patients at week 48. A voluntary fourth biopsy ( 11/12 patients) was performed at week 180. Monitoring of adverse events continued throughout the study.
Dystrophin expression levels were determined in both the eteplirsen treated cohort and matched external control cohort, based on MANDYS106 [a gift from Glen Morris, MDA Monoclonal Antibody Library], a highly sensitive marker for dystrophin used in prior studies of eteplirsen and other exon skipping candidates. Three 10 μm frozen sections, separated by at least 200 μm, were stained with MANDYS106, followed by a secondary antibody (Alexa Fluor 594 goat antimouse antibody). Four pathologists reviewed the tissue blinded and reported percent dystrophin-positive fibers, which were calculated by dividing the number of positive fibers by the total fibers counted. As normal muscle samples have 100% dystrophin-positive fibers, percent dystrophin-positive fibers is expressed as a percentage of normal.

Substance: RNA, [P-deoxy-P-(dimethylamino)](2′,3′-dideoxy-2′,3′-imino-2′,3′-seco)(2′a→5′)(C-m5U-C-C-A-A-C-A-m5U-C-A-A-G-G-A-A-G-A-m5U-G-G-C-A-m5U-m5U-m5U-C-m5U-A-G), 5′-[P-[4-[[2-[2-(2-hydroxyethoxy)ethoxy]ethoxy]carbonyl]-1-piperazinyl]-N,N-dimethylphosphonamidate] (antisense CTCCAACATCAAGGAAGATGGCATTTCTAG; all phosphorodiamidate morpholino (PMO); 5' piperazinyl triethylene glycol carbamate tail on phosphonamidate, further chemistry not fully specified) [eteplirsen]
- patients with dystrophin protein expression as measured by western blot analysis [1]: 9 of 11
- patients with dystrophin positive fibers as measured by immunohistochemistry ([2]; 180 weeks): 10 of 11
- dystrophin positive fibers compared to matched external control patients ([2]; after 180 weeks, four blinded pathologists, p<0.001): significantly higher amount of dystrophin positive fibers
